The species named for assay [1] is Homo sapiens. Briefly: Induction of adipogenesis in human MSC at 10 uM incubated for 5 days cotreated with IDX by ELISA. Type of assay: functional. On the technique in general: An ELISA detects its analyte on a solid surface through an enzyme-linked reagent.
Assay [2] addresses T1, Peroxisome proliferator-activated receptor delta (Homo sapiens) (UniProt Q03181).
T1 sequence (whole entry): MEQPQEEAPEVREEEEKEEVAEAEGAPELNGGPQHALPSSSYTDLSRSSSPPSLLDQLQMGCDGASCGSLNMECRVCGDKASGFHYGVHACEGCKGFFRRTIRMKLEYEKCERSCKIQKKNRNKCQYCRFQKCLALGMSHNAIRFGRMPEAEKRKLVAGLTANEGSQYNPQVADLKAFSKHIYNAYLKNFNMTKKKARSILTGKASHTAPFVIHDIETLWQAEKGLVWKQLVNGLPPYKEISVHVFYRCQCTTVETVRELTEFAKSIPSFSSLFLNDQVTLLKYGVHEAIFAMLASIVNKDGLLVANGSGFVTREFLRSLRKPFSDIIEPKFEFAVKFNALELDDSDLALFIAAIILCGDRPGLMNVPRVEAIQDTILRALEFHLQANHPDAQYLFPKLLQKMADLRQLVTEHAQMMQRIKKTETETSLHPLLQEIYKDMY
Nature of the assay: Competitive binding affinity to GST-tagged human PPARdelta LBD at 30 uM incubated for 1 to 6 hrs by TR-FRET assay relative to control. In general terms: Time-resolved FRET reads energy transfer from a long-lived donor to a nearby acceptor.

Assay [3] concerns the target T2, Peroxisome proliferator-activated receptor alpha (Homo sapiens) (UniProt Q07869).
T2 sequence (whole entry): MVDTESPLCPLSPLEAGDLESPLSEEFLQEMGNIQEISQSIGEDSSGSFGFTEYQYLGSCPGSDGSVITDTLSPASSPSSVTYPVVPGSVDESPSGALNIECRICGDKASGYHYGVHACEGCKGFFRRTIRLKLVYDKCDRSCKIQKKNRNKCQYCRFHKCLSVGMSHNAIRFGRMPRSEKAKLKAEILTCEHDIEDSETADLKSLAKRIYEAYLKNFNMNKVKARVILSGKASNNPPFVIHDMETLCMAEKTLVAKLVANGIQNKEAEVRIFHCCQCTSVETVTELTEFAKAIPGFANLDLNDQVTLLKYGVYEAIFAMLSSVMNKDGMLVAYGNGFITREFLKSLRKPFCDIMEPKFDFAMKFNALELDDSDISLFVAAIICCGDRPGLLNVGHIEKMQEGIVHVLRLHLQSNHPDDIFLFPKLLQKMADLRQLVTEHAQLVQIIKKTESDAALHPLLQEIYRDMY
Nature of the assay: Binding affinity to GST-tagged human PPARalpha LBD up to 30 uM incubated for 2 to 6 hrs by TR-FRET assay.

Assay [4] can be described thus: Induction of adipogenesis in human MSC incubated for 5 days cotreated with IDX by ELISA. Type of assay: functional.
The target of assay [5] is T3, Peroxisome proliferator-activated receptor delta (Homo sapiens, UniProt Q03181).
T3 sequence (Q03181 whole entry): T1 sequence (whole entry)
Nature of the assay: Antagonist at PPARdelta LBD (unknown origin) assessed as […] in recruitment of coactivator peptide C33 cotreated with PPARdelta agonist GW501516 by TR-FRET assay.

Assay [6] concerns the target T4, Peroxisome proliferator-activated receptor gamma (Homo sapiens) (UniProt P37231).
T4 sequence (whole entry): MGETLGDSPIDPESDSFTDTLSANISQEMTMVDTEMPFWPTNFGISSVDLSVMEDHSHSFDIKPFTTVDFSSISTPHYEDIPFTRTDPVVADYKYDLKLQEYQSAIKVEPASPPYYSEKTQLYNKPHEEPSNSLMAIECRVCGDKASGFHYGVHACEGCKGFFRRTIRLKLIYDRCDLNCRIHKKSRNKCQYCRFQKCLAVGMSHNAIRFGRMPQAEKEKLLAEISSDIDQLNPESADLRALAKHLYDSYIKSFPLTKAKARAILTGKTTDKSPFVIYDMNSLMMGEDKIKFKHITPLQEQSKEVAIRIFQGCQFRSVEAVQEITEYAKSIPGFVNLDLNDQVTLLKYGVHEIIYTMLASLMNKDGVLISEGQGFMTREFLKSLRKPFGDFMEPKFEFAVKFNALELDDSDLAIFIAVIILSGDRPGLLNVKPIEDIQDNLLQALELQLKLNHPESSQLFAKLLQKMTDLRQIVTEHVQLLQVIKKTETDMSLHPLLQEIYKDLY
Nature of the assay: Partial agonist at PPARgamma LBD (unknown origin) assessed as increase in recruitment of coactivator peptide C33 by TR-FRET assay relative to control.

Assay [7] deals with T3, Peroxisome proliferator-activated receptor delta. Nature of the assay: (§1) Competitive binding affinity to GST-tagged human PPARdelta LBD incubated for 1 to 6 hrs by TR-FRET assay.
Assay [8] deals with T5, Peroxisome proliferator-activated receptor gamma (Homo sapiens, UniProt P37231).
T5 sequence (P37231 whole entry): T4 sequence (whole entry)
Nature of the assay: (§2) Competitive binding affinity to GST-tagged human PPARgamma LBD incubated for 1 to 6 hrs by TR-FRET assay.

Assay [9] deals with T4, Peroxisome proliferator-activated receptor gamma (Homo sapiens). Briefly: Competitive binding affinity to GST-tagged human PPARgamma LBD at 30 uM incubated for 1 to 6 hrs by TR-FRET assay relative to control.
The species named for assay [10] is Homo sapiens. Nature of the assay: Induction of adipogenesis in human MSC assessed as increase in number of lipid droplets in differentiated adipocytes at 10 uM by Oil Red O staining based inverted microscopic method. Type of assay: functional, cell-based.
The species named for assay [11] is Homo sapiens. Briefly: Induction of adipogenesis in human MSC assessed as increase in size of lipid droplets in differentiated adipocytes at 10 uM by Oil Red O staining based inverted microscopic method. Type of assay: functional, cell-based.
The target in assay [12] is T3, Peroxisome proliferator-activated receptor delta. Briefly: Antagonist activity at PPARdelta LBD (unknown origin) assessed as increase in recruitment of SMRT ID2 corepressor peptide by TR-FRET assay.
In assay [13] the target is T1, Peroxisome proliferator-activated receptor delta (Homo sapiens). The description is as §1.
Assay [14] has as its target T4, Peroxisome proliferator-activated receptor gamma (Homo sapiens). The description is as §2.
The species named for assay [15] is Homo sapiens. Nature of the assay: Induction of adipogenesis in human MSC at 10 uM incubated for 5 days cotreated with IDX by ELISA relative to control. Type of assay: functional.
Assay [16] has as its target T4, Peroxisome proliferator-activated receptor gamma (Homo sapiens). Briefly: Partial agonist at PPARgamma LBD (unknown origin) assessed as inhibition in recruitment of coactivator peptide C33 cotreated with PPARgamma agonist troglitazone by TR-FRET assay.

The structures appear in SMILES notation. Active and inactive are the calls of the source. No cut-off for these calls is given here.

For orientation: EC50 means the concentration giving half of the maximal effect.

For `CNC(=O)[C@H]1[Se][C@@H](n2cnc3c(NCc4cccc(F)c4)nc(Cl)nc32)[C@H](O)[C@@H]1O`, the outcome in assay [1] was Active. For the same compound, the Activity in assay [2] was above 50%. Also, in assay [3], the result was inactive.
Take `CNC(=O)[C@H]1[Se][C@@H](n2cnc3c(NCc4ccccc4Cl)ncnc32)[C@H](O)[C@@H]1O`: in assay [3], the outcome was inactive.
With `CCc1ccc(CCOc2ccc(CC3SC(=O)NC3=O)cc2)nc1` (stereo unspecified) [PIOGLITAZONE], the EC50 in [4] was determined as 0.5 µM.
For `CNC(=O)[C@H]1S[C@@H](n2cnc3c(NCc4cccc(I)c4)ncnc32)[C@H](O)[C@@H]1O`, the result in [3] was inactive.
In the case of `CNC(=O)[C@H]1O[C@@H](n2cnc3c(NCc4cccc(I)c4)nc(Cl)nc32)[C@H](O)[C@@H]1O` [NAMODENOSON], the EC50 is 40.6 µM in assay [4], 29.8 µM in assay [5], 0.191 µM in assay [7] and 2.94 µM in assay [8]. Besides, the Activity in [6] was below 50%. Moreover, in [3], the result was inactive.
For `CNC(=O)[C@H]1[Se][C@@H](n2cnc3c(NCc4cccc(Cl)c4)nc(Cl)nc32)[C@H](O)[C@@H]1O`, the outcome in assay [9] and in assay [1] was Active. The compound also came in with an Activity in assay [2] above 50%. The outcome in assay [3] was inactive.
For the compound `CNC(=O)[C@H]1[Se][C@@H](n2cnc3c(NCc4cccc(Br)c4)nc(Cl)nc32)[C@H](O)[C@@H]1O`, the outcome in [9] and in [1] was Active. Besides, the Activity in assay [2] was above 50%. For the same compound, the outcome in [3] was inactive.
Take `CNC(=O)[C@H]1[Se][C@@H](n2cnc3c(NCc4cccc(F)c4)ncnc32)[C@H](O)[C@@H]1O`: in assay [3], the outcome was inactive.
Take `CNC(=O)[C@H]1[Se][C@@H](n2cnc3c(NC4CCCC4)ncnc32)[C@H](O)[C@@H]1O`: the result in assay [3] was inactive.
Take `CNC(=O)[C@H]1[Se][C@@H](n2cnc3c(NCc4cccc(I)c4)nc(Cl)nc32)[C@H](O)[C@@H]1O`: the Activity is above 50% in [9]; below 50% in [6]; “Dose-dependent effect” in assay [13]; “Dose-dependent effect” in [14]; above 50% in assay [2]. For the same compound, the EC50 was 12.6 µM in [4]; 5.2 µM in assay [5]; 7.3 µM in [12]; 0.0144 µM in assay [7]; 5.31 µM in assay [8]. For the same compound, the outcome in assay [10], in [11] and in assay [1] was Active. Further, the result in [3] was inactive. Besides, in assay [15], the fold change (FC) is 3.22. Also, the inhibition entry in [16] was “Active”.
Turning to `CNC(=O)[C@H]1[Se][C@@H](n2cnc3c(NCc4cccc(Br)c4)ncnc32)[C@H](O)[C@@H]1O`, the outcome in assay [1] was Active. Moreover, the Activity in assay [2] was above 50%. Further, the outcome in [3] was inactive.
Turning to `CNC(=O)[C@H]1[Se][C@@H](n2cnc3c(NCc4cccc(I)c4)ncnc32)[C@H](O)[C@@H]1O`, the result in assay [9] and in assay [1] was Active. The Activity in [2] is above 50%. Further, in assay [3], the result was inactive.
In the case of `CNC(=O)[C@H]1S[C@@H](n2cnc3c(NCc4cccc(I)c4)nc(Cl)nc32)[C@H](O)[C@@H]1O`, the EC50 in [4] came to 20.8 µM; in assay [5] it was 10.7 µM; in assay [12], 16.7 µM; in assay [7], 0.0411 µM; in assay [8], 4.64 µM. Also, the Activity in assay [6] is below 50%. The outcome in assay [3] was inactive.
As for `CNC(=O)[C@H]1O[C@@H](n2cnc3c(NCc4cccc(I)c4)ncnc32)[C@H](O)[C@@H]1O`, the result in assay [3] was inactive.
`CNC(=O)[C@H]1[Se][C@@H](n2cnc3c(NCc4cccc5ccccc45)ncnc32)[C@H](O)[C@@H]1O`: the outcome in assay [9] and in assay [1] was Active. For the same compound, the outcome in assay [3] was inactive.

The values above are taken from ChEMBL document CHEMBL4610002, “Selenium bioisosteric replacement of adenosine derivatives promoting adiponectin secretion increases the binding affinity to peroxisome proliferator-activated receptor δ” (Bioorg Med Chem, 2020).
